Test results from patent US4303785A, “Antitumor anthracycline antibiotics” (priority 1978, dated 1981).
Where two headings read alike, the source gives them in different places.

System: L1210 cells
Assay: animal or person
Format: in vivo, CDF1 mice
Conditions: for response vs control in vivo at 0.15 mg/kg / response vs control in vivo at 0.31 mg/kg / response vs control in vivo at 0.625 mg/kg / response vs control in vivo at 1.25 mg/kg / response vs control in vivo at 2.5 mg/kg / response vs control in vivo at 5 mg/kg: Mus musculus, L1210, ip, 1080 h
Experimental: D. Representative compounds of general formula I" were tested against experimental animal tumors as follows: […]
CDF1 mice were administered intraperitoneally (i.p.) with 1×10^5 cells/mouse of L1210 cells. After 24 hours had elapsed since inoculation, the mice were administered the test compounds intraperitoneally once daily for 10 consecutive days and observed for a 45 day period.
The antitumor activity was shown by the prolongation rate of survival day (T/C, %) to the survival day of control mice injected with physiological saline.

[1] = 0.15 mg/kg/day i.p., once daily for 10 days
[2] = 0.31 mg/kg/day i.p., once daily for 10 days
[3] = 0.625 mg/kg/day i.p., once daily for 10 days
[4] = 1.25 mg/kg/day i.p., once daily for 10 days
[5] = 2.5 mg/kg/day i.p., once daily for 10 days
[6] = 5 mg/kg/day i.p., once daily for 10 days
[7] = read-out: Antitumor Activity (T/C, prolongation rate of survival day), 0.15 mg/kg/day i.p., once daily for 10 days
[8] = read-out: Antitumor Activity (T/C, prolongation rate of survival day), 0.31 mg/kg/day i.p., once daily for 10 days
[9] = read-out: Antitumor Activity (T/C, prolongation rate of survival day), 0.625 mg/kg/day i.p., once daily for 10 days
[10] = read-out: Antitumor Activity (T/C, prolongation rate of survival day), 1.25 mg/kg/day i.p., once daily for 10 days
[11] = read-out: Antitumor Activity (T/C, prolongation rate of survival day), 2.5 mg/kg/day i.p., once daily for 10 days

SMILES	Antitumor Activity (T/C, prolongation rate of survival day) [1]	Antitumor Activity (T/C, prolongation rate of survival day) [2]	Antitumor Activity (T/C, prolongation rate of survival day) [3]	Antitumor Activity (T/C, prolongation rate of survival day) [4]	Antitumor Activity (T/C, prolongation rate of survival day) [5]	Antitumor Activity (T/C, prolongation rate of survival day) [6]	response vs control in vivo at 0.15 mg/kg [7]	response vs control in vivo at 0.31 mg/kg [8]	response vs control in vivo at 0.625 mg/kg [9]	response vs control in vivo at 1.25 mg/kg [10]	further results
COc1cccc2c1C(=O)c1c(O)c3c(c(O)c1C2=O)C[C@@](O)(C(C)=O)C[C@@H]3O[C@H]1C[C@H](N)[C@H](OC(C)OCC(C)C)[C@H](C)O1 (single isomer, unassigned) [Example 17-b, 4'-O-(1-isobutyloxyethyl) daunomycin b]	100%	100%	100%	106%	113%	188%	–	–	–	–	–
COC(=O)C1CCCC(O[C@@H]2[C@H](C)O[C@@H](O[C@H]3C[C@](O)(C(C)=O)Cc4c(O)c5c(c(O)c43)C(=O)c3c(OC)cccc3C5=O)C[C@@H]2N)O1 (stereo partly drawn) [Example 15, 4'-O-(6-carbomethoxytetrahydropyranyl) daunomycin]	–	–	–	–	–	–	100%	100%	100%	100%	response vs control in vivo at 2.5 mg/kg [11]: 106%; response vs control in vivo at 5 mg/kg (read-out: Antitumor Activity (T/C, prolongation rate of survival day), 5 mg/kg/day i.p., once daily for 10 days): 131%
COc1cccc2c1C(=O)c1c(O)c3c(c(O)c1C2=O)C[C@@](O)(C(C)=O)C[C@@H]3O[C@H]1C[C@H](N)[C@H](OC2CCCC(OC)O2)[C@H](C)O1 (single isomer, unassigned) [Example 14-a, 4'-O-(6-methoxytetrahydropyranyl) daunomycin a]	–	–	–	–	–	232%	100%	100%	100%	106%	response vs control in vivo at 2.5 mg/kg [11]: 125%
CCCCOC(C)O[C@@H]1[C@H](C)O[C@@H](O[C@H]2C[C@](O)(C(C)=O)Cc3c(O)c4c(c(O)c32)C(=O)c2c(OC)cccc2C4=O)C[C@@H]1N (single isomer, unassigned) [Example 18-b, 4'-O-(1-butyloxyethyl) daunomycin b]	103%	96%	110%	110%	151%	188%	–	–	–	–	–
COc1cccc2c1C(=O)c1c(O)c3c(c(O)c1C2=O)C[C@@](O)(C(=O)CO)C[C@@H]3O[C@H]1C[C@H](N)[C@H](OC(C)OCC(C)C)[C@H](C)O1 (single isomer, unassigned) [Example 9-b, 4'-O-(1-isobutyloxyethyl) adriamycin b]	99%	118%	105%	118%	158%	303%	–	–	–	–	–
COc1cccc2c1C(=O)c1c(O)c3c(c(O)c1C2=O)C[C@@](O)(C(C)=O)C[C@@H]3O[C@H]1C[C@H](N)[C@H](OC2CCCO2)[C@H](C)O1 (stereo partly drawn) [Example 12, 4'-O-(tetrahydrofuranyl) daunomycin]	–	–	–	–	–	–	–	–	–	–	response vs control in vivo at 0.15 mg/kg (0.15 mg/kg/day i.p., once daily for 10 days, read-out: Antitumor Activity (T/C, prolongation rate of survival day)): 99%; response vs control in vivo at 0.31 mg/kg (0.31 mg/kg/day i.p., once daily for 10 days, read-out: Antitumor Activity (T/C, prolongation rate of survival day)): 105%; response vs control in vivo at 0.625 mg/kg (0.625 mg/kg/day i.p., once daily for 10 days, read-out: Antitumor Activity (T/C, prolongation rate of survival day)): 111%; response vs control in vivo at 1.25 mg/kg (1.25 mg/kg/day i.p., once daily for 10 days, read-out: Antitumor Activity (T/C, prolongation rate of survival day)): 111%; response vs control in vivo at 2.5 mg/kg (2.5 mg/kg/day i.p., once daily for 10 days, read-out: Antitumor Activity (T/C, prolongation rate of survival day)): 160%; response vs control in vivo at 5 mg/kg (5 mg/kg/day i.p., once daily for 10 days, read-out: Antitumor Activity (T/C, prolongation rate of survival day)): 346%
COc1cccc2c1C(=O)c1c(O)c3c(c(O)c1C2=O)C[C@@](O)(C(=O)CO)C[C@@H]3O[C@H]1C[C@H](N)[C@H](OC(C)OCCCCCC(C)C)[C@H](C)O1 (single isomer, unassigned) [Example 10-b, 4'-O-(1-(6-methylheptyloxy)ethyl) adriamycin b]	105%	105%	112%	112%	105%	118%	–	–	–	–	–
COc1cccc2c1C(=O)c1c(O)c3c(c(O)c1C2=O)C[C@@](O)(C(C)=O)C[C@@H]3O[C@H]1C[C@H](N)[C@H](OC2CCCC(OC)O2)[C@H](C)O1 (single isomer, unassigned) [Example 14-b, 4'-O-(6-methoxytetrahydropyranyl) daunomycin b]	94%	100%	106%	113%	131%	463%	–	–	–	–	–
CCCCOC(C)O[C@@H]1[C@H](C)O[C@@H](O[C@H]2C[C@](O)(C(C)=O)Cc3c(O)c4c(c(O)c32)C(=O)c2c(OC)cccc2C4=O)C[C@@H]1N (single isomer, unassigned) [Example 18-a, 4'-O-(1-butyloxyethyl) daunomycin a]	–	–	–	–	116%	144%	110%	103%	110%	116%	–
COc1cccc2c1C(=O)c1c(O)c3c(c(O)c1C2=O)C[C@@](O)(C(=O)CO)C[C@@H]3O[C@H]1C[C@H](N)[C@H](OC2CCCO2)[C@H](C)O1 (single isomer, unassigned) [Example 5-b, 4'-O-tetrahydrofuranyl adriamycin b]	122%	128%	141%	154%	230%	256%	–	–	–	–	–
CCOC(C)O[C@@H]1[C@H](C)O[C@@H](O[C@H]2C[C@](O)(C(C)=O)Cc3c(O)c4c(c(O)c32)C(=O)c2c(OC)cccc2C4=O)C[C@@H]1N (single isomer, unassigned) [Example 16-a, 4'-O-(1-ethyloxyethyl) daunomycin a]	–	–	–	–	157%	217%	96%	96%	104%	102%	–
